Results as given in PubChem BioAssay AID330 (DTP/NCI, 2004).
Values joined by “and” are separate entries in the source; they are usually repeats but may differ in a detail not shown here. Equal values may be shown once. Toxic doses and inconclusive results are not listed. The calls were made as follows: active = survival T/C of 150% or more; inactive = T/C below 125% in these data.

System: P388 leukemia ip, CD2F1 mice, survival T/C
Assay: NCI In Vivo Anticancer Drug Screen. Data for tumor model P388 Leukemia (intraperitoneal) in CD2F1 (CDF1) mice
Details: endpoint: median survival time, higher = longer survival
Outline: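 Mice carrying the transplanted tumor received test compound or vehicle. Survival was recorded in each group, and the value is the treated-group measurement divided by that of the vehicle-treated control group.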

[1] = dose: 100.0 mg/kg/injection, schedule: Q01DX001 (ip), vehicle: saline with Tween-80
[2] = dose: 50.0 mg/kg/injection, schedule: Q01DX009 (ip), vehicle: saline with Tween-80
[3] = dose: 100.0 mg/kg/injection, schedule: Q01DX009 (ip), vehicle: saline with Tween-80
[4] = dose: 200.0 mg/kg/injection, schedule: Q01DX009 (ip), vehicle: saline with Tween-80
[5] = dose: 25.0 mg/kg/injection, schedule: Q01DX009 (ip), vehicle: saline with Tween-80
[6] = dose: 50.0 mg/kg/injection, schedule: Q01DX009 (ip), vehicle: Klucel (hydroxypropylcellulose) (HPC)
[7] = dose: 100.0 mg/kg/injection, schedule: Q01DX009 (ip), vehicle: Klucel (hydroxypropylcellulose) (HPC)
[8] = dose: 200.0 mg/kg/injection, schedule: Q01DX009 (ip), vehicle: Klucel (hydroxypropylcellulose) (HPC)
[9] = dose: 50.0 mg/kg/injection, schedule: Q01DX005 (ip), vehicle: saline with Tween-80
[10] = dose: 100.0 mg/kg/injection, schedule: Q01DX005 (ip), vehicle: saline with Tween-80
[11] = dose: 200.0 mg/kg/injection, schedule: Q01DX005 (ip), vehicle: saline with Tween-80
[12] = dose: 60.0 mg/kg/injection, schedule: Q01DX005 (ip), vehicle: saline with Tween-80
[13] = dose: 120.0 mg/kg/injection, schedule: Q01DX005 (ip), vehicle: saline with Tween-80
[14] = dose: 240.0 mg/kg/injection, schedule: Q01DX005 (ip), vehicle: saline with Tween-80

Measured: T/C

Cn1c2c(c(=O)n(C)c1=O)Cc1cc(CC(=O)O)ccc1N2
inactive: [1] 99 % of control | dose: 200.0 mg/kg/injection, schedule: Q01DX001 (ip), vehicle: saline with Tween-80 97 % of control | dose: 400.0 mg/kg/injection, schedule: Q01DX001 (ip), vehicle: saline with Tween-80 96 % of control

CCC1C2Cc3ccc(O)cc3C1(CC)CCN2Cc1ccoc1 (stereo unspecified)
inactive: [2] 96 % of control | [3] 88 % of control | [4] 91 % of control

Cn1c(=O)c2c(nnc(-c3ccc(Cl)cc3)[n+]2[O-])n(C)c1=O
inactive: dose: 100.0 mg/kg/injection, schedule: Q01DX001 (ip), vehicle: Klucel (hydroxypropylcellulose) (HPC) 106 % of control

O=c1cc(-c2ccc3ccccc3n2)oc2ccc(Cl)cc12
inactive: dose: 10.0 mg/kg/injection, schedule: Q01DX009 (ip), vehicle: saline 107 % of control | dose: 20.0 mg/kg/injection, schedule: Q01DX009 (ip), vehicle: saline 93 % of control | dose: 40.0 mg/kg/injection, schedule: Q01DX009 (ip), vehicle: saline 89 % of control

CCC(c1ccc(OCCS(=O)(=O)Oc2ccc(C)cc2)cc1)C(CC)c1ccc(OCCS(=O)(=O)Oc2ccc(C)cc2)cc1 (stereo unspecified)
inactive: dose: 50.0 mg/kg/injection, schedule: Q01DX009 (ip), vehicle: saline 106 % of control | dose: 100.0 mg/kg/injection, schedule: Q01DX009 (ip), vehicle: saline 87 % of control | dose: 200.0 mg/kg/injection, schedule: Q01DX009 (ip), vehicle: saline 95 % of control

C=C(NC(C)=O)C(=O)O
inactive: dose: 6.25 mg/kg/injection, schedule: Q01DX009 (ip), vehicle: saline with Tween-80 103 % of control | dose: 12.5 mg/kg/injection, schedule: Q01DX009 (ip), vehicle: saline with Tween-80 101 % of control and 86 % of control | dose: 12.5 mg/kg/injection, schedule: Q04DX003 (ip), vehicle: saline with Tween-80 104 % of control | [5] 108 % of control | dose: 25.0 mg/kg/injection, schedule: Q04DX003 (ip), vehicle: saline with Tween-80 103 % of control | dose: 50.0 mg/kg/injection, schedule: Q04DX003 (ip), vehicle: saline with Tween-80 101 % of control | [1] 101 % of control

Cc1ccc(NC(=O)Nc2nc3ccccc3s2)cc1NC(=O)Nc1nc2ccccc2s1
inactive: [6] 110 % of control | [7] 102 % of control | [8] 109 % of control

Cc1cc(Br)c2c(c1N)C(=O)c1ccccc1C2=O
inactive: [6] 99 % of control | [7] 107 % of control | [8] 102 % of control

NC(=O)c1ccccc1N1CCCCC1
inactive: [9] 99 % of control | [10] 100 % of control | [11] 91 % of control

N#Cc1ccc(OCCCCCOc2ccc(C#N)cc2)cc1
inactive: [5] 108 % of control | [2] 100 % of control | [3] 97 % of control | [4] 99 % of control

C=CCOc1cc2c(cc1Cc1ccc3c(c1)OCO3)OCO2
inactive: [9] 100 % of control | [10] 100 % of control | [11] 103 % of control

c1ccc2c(NCCCCCCCCCCCCCCCCNc3c4ccccc4nc4ccccc34)c3ccccc3nc2c1
inactive: dose: 0.62 mg/kg/injection, schedule: Q01DX009 (ip), vehicle: other 98 % of control | dose: 1.25 mg/kg/injection, schedule: Q01DX009 (ip), vehicle: other 101 % of control | dose: 2.5 mg/kg/injection, schedule: Q01DX009 (ip), vehicle: other 105 % of control | dose: 5.0 mg/kg/injection, schedule: Q01DX009 (ip), vehicle: other 109 % of control | dose: 10.0 mg/kg/injection, schedule: Q01DX009 (ip), vehicle: other 108 % of control

CS(=O)(=O)c1nc2ccc(N3C(=O)c4ccccc4C3=O)cc2s1
inactive: dose: 12.5 mg/kg/injection, schedule: Q01DX009 (ip), vehicle: Klucel (hydroxypropylcellulose) (HPC) 108 % of control | dose: 25.0 mg/kg/injection, schedule: Q01DX009 (ip), vehicle: Klucel (hydroxypropylcellulose) (HPC) 107 % of control | [6] 110 % of control and 89 % of control | [8] 105 % of control

COc1ccc(OC)c(NC(=O)Oc2c(C)cc(Cl)cc2Br)c1
inactive: [2] 97 % of control | [3] 99 % of control | [4] 100 % of control

CC(=O)C1C(=O)C(=O)N(c2ccc(S(N)(=O)=O)cc2)C1=O (stereo unspecified)
inactive: [12] 103 % of control | [13] 104 % of control | [14] 118 % of control

c1ccc2c(c1)Sc1ccccc1C2=C1c2ccccc2Sc2ccccc21
inactive: [9] 88 % of control | [10] 90 % of control | [11] 88 % of control

COc1ccc2c(c1)CCC1C2=CCS1(=O)=O (stereo unspecified)
inactive: [9] 103 % of control | [10] 94 % of control | [11] 92 % of control

COC(=O)[C@@H]1[C@H]2CC(C)(C)C[C@H]2C2=CCC[C@@H]21
inactive: dose: 18.5 mg/kg/injection, schedule: Q01DX005 (ip), vehicle: suspension in saline 96 % of control | dose: 37.0 mg/kg/injection, schedule: Q01DX005 (ip), vehicle: suspension in saline 98 % of control | dose: 74.0 mg/kg/injection, schedule: Q01DX005 (ip), vehicle: suspension in saline 98 % of control

CC(NNC(=S)N1CCN(c2ccccn2)CC1)c1cccc[n+]1[O-] (stereo unspecified)
inactive: [9] 103 % of control | [10] 100 % of control | [11] 91 % of control

CC(=O)/C(=C\c1ccc(O)cc1)C(=O)CCN(C)C
inactive: [9] 108 % of control | [10] 112 % of control | [11] 112 % of control

Cn1cnc2c(=O)[nH]c(N)nc21
inactive: [9] 102 % of control | [10] 107 % of control | [11] 107 % of control

Cn1c(CCC(=O)O)c(CC(=O)O)c2ccccc21
inactive: dose: 100.0 mg/kg/injection, schedule: Q04DX002 (ip), vehicle: saline with Tween-80 99 % of control | dose: 200.0 mg/kg/injection, schedule: Q04DX002 (ip), vehicle: saline with Tween-80 97 % of control | dose: 400.0 mg/kg/injection, schedule: Q04DX002 (ip), vehicle: saline with Tween-80 108 % of control

CSCCC(NC(=O)CN(C)C(=O)OCc1ccccc1)C(=O)O (stereo unspecified)
inactive: [9] 100 % of control | [10] 100 % of control

Cc1cc(=O)oc2c(-c3ccccc3)n[nH]c(=O)c12
inactive: dose: 60.0 mg/kg/injection, schedule: Q01DX005 (ip), vehicle: Klucel (hydroxypropylcellulose) (HPC) 104 % of control | dose: 120.0 mg/kg/injection, schedule: Q01DX005 (ip), vehicle: Klucel (hydroxypropylcellulose) (HPC) 95 % of control | dose: 240.0 mg/kg/injection, schedule: Q01DX005 (ip), vehicle: Klucel (hydroxypropylcellulose) (HPC) 97 % of control

CCSc1cccc2nncn12
inactive: dose: 50.0 mg/kg/injection, schedule: Q01DX001 (ip), vehicle: saline 103 % of control | dose: 100.0 mg/kg/injection, schedule: Q01DX001 (ip), vehicle: saline 100 % of control | dose: 200.0 mg/kg/injection, schedule: Q01DX001 (ip), vehicle: saline 100 % of control

Cc1cc2[nH]c3c(C#N)c(O)c(Cc4ccccc4)c(=O)n3c2cc1C
inactive: [12] 91 % of control | [13] 89 % of control | [14] 90 % of control

O=[N+]([O-])c1ccccc1N(CCO)CCO
inactive: [12] 96 % of control | [13] 99 % of control | [14] 98 % of control

CN(C)CCC(=O)C(=Cc1ccccc1Cl)C(=O)CCN(C)C
inactive: dose: 60.0 mg/kg/injection, schedule: Q01DX005 (ip), vehicle: saline 105 % of control | dose: 120.0 mg/kg/injection, schedule: Q01DX005 (ip), vehicle: saline 106 % of control | dose: 240.0 mg/kg/injection, schedule: Q01DX005 (ip), vehicle: saline 105 % of control

Nc1nc2c(ncn2C2OC(CO)C(O)C2O)c(=O)o1 (stereo unspecified)
inactive: dose: 50.0 mg/kg/injection, schedule: Q01DX005 (ip), vehicle: Klucel (hydroxypropylcellulose) (HPC) 106 % of control | dose: 100.0 mg/kg/injection, schedule: Q01DX005 (ip), vehicle: Klucel (hydroxypropylcellulose) (HPC) 112 % of control | dose: 200.0 mg/kg/injection, schedule: Q01DX005 (ip), vehicle: Klucel (hydroxypropylcellulose) (HPC) 116 % of control | dose: 400.0 mg/kg/injection, schedule: Q01DX005 (ip), vehicle: Klucel (hydroxypropylcellulose) (HPC) 111 % of control

O=C(Nc1cc(Cl)cc(Cl)c1)OCCCl
inactive: [12] 100 % of control | [13] 98 % of control | [14] 91 % of control
